Assay results: ChEMBL document CHEMBL1153552, “Comparative in vitro pharmacodynamics of caspofungin, micafungin, and anidulafungin against germinated and nongerminated Aspergillus conidia” (2008)
Calls of active or inactive are those of the source. No cut-off for these calls is given here.

Columns and labels:
Aspergillus fumigatus [1] = assay: Antifungal activity against nongerminated Aspergillus fumigatus assessed as lowest drug concentration that produced short, stubby and highly branched hyphae after 48 hrs by microscopic analysis; format: functional; settings: read-out: MEC
Aspergillus fumigatus [2] = assay: Antifungal activity against germinated Aspergillus fumigatus assessed as lowest drug concentration that produced short, stubby and highly branched hyphae after 48 hrs by microscopic analysis; format: functional; settings: read-out: MEC
Aspergillus fumigatus [3] = assay: Ratio of log2 of MEC for germinated Aspergillus fumigatus to log2 of MEC for nongerminated Aspergillus fumigatus; format: functional
Aspergillus terreus [4] = assay: Antifungal activity against nongerminated Aspergillus terreus assessed as lowest drug concentration that produced short, stubby and highly branched hyphae after 48 hrs by microscopic analysis; format: functional; settings: read-out: MEC
Aspergillus terreus [5] = assay: Antifungal activity against germinated Aspergillus terreus assessed as lowest drug concentration that produced short, stubby and highly branched hyphae after 48 hrs by microscopic analysis; format: functional; settings: read-out: MEC
Aspergillus terreus [6] = assay: Ratio of log2 of MEC for germinated Aspergillus terreus to log2 of MEC for nongerminated Aspergillus terreus; format: functional
Aspergillus flavus [7] = assay: Antifungal activity against nongerminated Aspergillus flavus assessed as lowest drug concentration that produced short, stubby and highly branched hyphae after 48 hrs by microscopic analysis; format: functional; settings: read-out: MEC
Aspergillus flavus [8] = assay: Antifungal activity against germinated Aspergillus flavus assessed as lowest drug concentration that produced short, stubby and highly branched hyphae after 48 hrs by microscopic analysis; format: functional; settings: read-out: MEC
Aspergillus flavus [9] = assay: Ratio of log2 of MEC for germinated Aspergillus flavus to log2 of MEC for nongerminated Aspergillus flavus; format: functional
Aspergillus fumigatus [10] = assay: Effect on nongerminated Aspergillus fumigatus metabolic activity assessed as drug concentration at which fungal metabolic activity occurs after 2 hrs by XTT assay; format: functional
Aspergillus fumigatus [11] = assay: Effect on germinated Aspergillus fumigatus metabolic activity assessed as drug concentration at which fungal metabolic activity occurs after 2 hrs by XTT assay; format: functional
Aspergillus fumigatus [12] = assay: Effect on Aspergillus fumigatus metabolic activity assessed number of twofold drug dilutions required for germinated fungal metabolic activity to nongerminated fungal metabolic activity; format: functional
Aspergillus terreus [13] = assay: Effect on nongerminated Aspergillus terreus metabolic activity assessed as drug concentration at which fungal metabolic activity occurs after 2 hrs by XTT assay; format: functional
Aspergillus terreus [14] = assay: Effect on germinated Aspergillus terreus metabolic activity assessed as drug concentration at which fungal metabolic activity occurs after 2 hrs by XTT assay; format: functional
Aspergillus terreus [15] = assay: Effect on Aspergillus terreus metabolic activity assessed number of twofold drug dilutions required for germinated fungal metabolic activity to nongerminated fungal metabolic activity; format: functional
Aspergillus flavus [16] = assay: Effect on nongerminated Aspergillus flavus metabolic activity assessed as drug concentration at which fungal metabolic activity occurs after 2 hrs by XTT assay; format: functional
Aspergillus flavus [17] = assay: Effect on germinated Aspergillus flavus metabolic activity assessed as drug concentration at which fungal metabolic activity occurs after 2 hrs by XTT assay; format: functional
Aspergillus flavus [18] = assay: Effect on Aspergillus flavus metabolic activity assessed number of twofold drug dilutions required for germinated fungal metabolic activity to nongerminated fungal metabolic activity; format: functional
Aspergillus fumigatus [19] = assay: Induction of maximal metabolic inhibition in nongerminated Aspergillus fumigatus assessed as minimal metabolic activity Ymin after 2 hrs by XTT assay; format: functional; design: scale not given: the % may be the effect or the level left
Aspergillus fumigatus [20] = assay: Induction of maximal metabolic inhibition in germinated Aspergillus fumigatus assessed as minimal metabolic activity Ymin after 2 hrs by XTT assay; format: functional; design: scale not given: the % may be the effect or the level left
Aspergillus terreus [21] = assay: Induction of maximal metabolic inhibition in nongerminated Aspergillus terreus assessed as minimal metabolic activity Ymin after 2 hrs by XTT assay; format: functional; design: scale not given: the % may be the effect or the level left
Aspergillus terreus [22] = assay: Induction of maximal metabolic inhibition in germinated Aspergillus terreus assessed as minimal metabolic activity Ymin after 2 hrs by XTT assay; format: functional; design: scale not given: the % may be the effect or the level left
Aspergillus flavus [23] = assay: Induction of maximal metabolic inhibition in nongerminated Aspergillus flavus assessed as minimal metabolic activity Ymin after 2 hrs by XTT assay; format: functional; design: scale not given: the % may be the effect or the level left
Aspergillus flavus [24] = assay: Induction of maximal metabolic inhibition in germinated Aspergillus flavus assessed as minimal metabolic activity Ymin after 2 hrs by XTT assay; format: functional; design: scale not given: the % may be the effect or the level left
Aspergillus fumigatus [25] = assay: Decrease in nongerminated Aspergillus fumigatus metabolism assessed as metabolic activity at 64 ug/mL after 48 hrs by XTT assay; format: functional; design: scale not given: the % may be the effect or the level left
Aspergillus fumigatus [26] = assay: Decrease in germinated Aspergillus fumigatus metabolism assessed as metabolic activity at 64 ug/mL after 48 hrs by XTT assay; format: functional; design: scale not given: the % may be the effect or the level left
Aspergillus terreus [27] = assay: Decrease in nongerminated Aspergillus terreus metabolism assessed as metabolic activity at 64 ug/mL after 48 hrs by XTT assay; format: functional; design: scale not given: the % may be the effect or the level left
Aspergillus terreus [28] = assay: Decrease in germinated Aspergillus terreus metabolism assessed as metabolic activity at 64 ug/mL after 48 hrs by XTT assay; format: functional; design: scale not given: the % may be the effect or the level left
Aspergillus flavus [29] = assay: Decrease in nongerminated Aspergillus flavus metabolism assessed as metabolic activity at 64 ug/mL after 48 hrs by XTT assay; format: functional; design: scale not given: the % may be the effect or the level left
Aspergillus flavus [30] = assay: Decrease in germinated Aspergillus flavus metabolism assessed as metabolic activity at 64 ug/mL after 48 hrs by XTT assay; format: functional; design: scale not given: the % may be the effect or the level left
Aspergillus fumigatus [31] = assay: Decrease in nongerminated Aspergillus fumigatus metabolism assessed as metabolic activity at 128 ug/mL after 48 hrs by XTT assay; format: functional; design: scale not given: the % may be the effect or the level left
Aspergillus fumigatus [32] = assay: Decrease in germinated Aspergillus fumigatus metabolism assessed as metabolic activity at 128 ug/mL after 48 hrs by XTT assay; format: functional; design: scale not given: the % may be the effect or the level left
Aspergillus terreus [33] = assay: Decrease in nongerminated Aspergillus terreus metabolism assessed as metabolic activity at 128 ug/mL after 48 hrs by XTT assay; format: functional; design: scale not given: the % may be the effect or the level left
Aspergillus terreus [34] = assay: Decrease in germinated Aspergillus terreus metabolism assessed as metabolic activity at 128 ug/mL after 48 hrs by XTT assay; format: functional; design: scale not given: the % may be the effect or the level left
Aspergillus flavus [35] = assay: Decrease in nongerminated Aspergillus flavus metabolism assessed as metabolic activity at 128 ug/mL after 48 hrs by XTT assay; format: functional; design: scale not given: the % may be the effect or the level left
Aspergillus flavus [36] = assay: Decrease in germinated Aspergillus flavus metabolism assessed as metabolic activity at 128 ug/mL after 48 hrs by XTT assay; format: functional; design: scale not given: the % may be the effect or the level left
Aspergillus fumigatus [37] = assay: Antifungal activity against nongerminated Aspergillus fumigatus assessed as absence of visual fungal growth at 128 ug/mL; format: functional, organism-based
Aspergillus fumigatus [38] = assay: Antifungal activity against germinated Aspergillus fumigatus assessed as absence of visual fungal growth at 128 ug/mL; format: functional, organism-based
Aspergillus terreus [39] = assay: Antifungal activity against nongerminated Aspergillus terreus assessed as absence of visual fungal growth at 128 ug/mL; format: functional, organism-based
Aspergillus terreus [40] = assay: Antifungal activity against germinated Aspergillus terreus assessed as absence of visual fungal growth at 128 ug/mL; format: functional, organism-based
Aspergillus flavus [41] = assay: Antifungal activity against nongerminated Aspergillus flavus assessed as absence of visual fungal growth at 128 ug/mL; format: functional, organism-based
Aspergillus flavus [42] = assay: Antifungal activity against germinated Aspergillus flavus assessed as absence of visual fungal growth at 128 ug/mL; format: functional, organism-based

CC[C@H](C)C[C@H](C)CCCCCCCCC(=O)N[C@H]1C[C@@H](O)[C@@H](NCCN)NC(=O)[C@@H]2[C@@H](O)CCN2C(=O)[C@H]([C@H](O)CCN)NC(=O)[C@H]([C@H](O)[C@@H](O)c2ccc(O)cc2)NC(=O)[C@@H]2C[C@@H](O)CN2C(=O)[C@H]([C@@H](C)O)NC1=O [CASPOFUNGIN]
minimal effective concentration (Aspergillus fumigatus [1]): 1 µg/mL | minimal effective concentration (Aspergillus fumigatus [2]): 1 µg/mL | Ratio (Aspergillus fumigatus [3]): 0 | minimal effective concentration (Aspergillus terreus [4]): 0.5 µg/mL | minimal effective concentration (Aspergillus terreus [5]): 1 µg/mL | Ratio (Aspergillus terreus [6]): 1 | minimal effective concentration (Aspergillus flavus [7]): 1 µg/mL | minimal effective concentration (Aspergillus flavus [8]): 1 µg/mL | Ratio (Aspergillus flavus [9]): 0 | EC5 (Aspergillus fumigatus [10]): 0.67 µg/mL | EC5 (Aspergillus fumigatus [11]): 1.2 µg/mL | Ratio (Aspergillus fumigatus [12]): 0.96 | EC5 (Aspergillus terreus [13]): 0.65 µg/mL | EC5 (Aspergillus terreus [14]): 1.06 µg/mL | Ratio (Aspergillus terreus [15]): 1.12 | EC5 (Aspergillus flavus [16]): 0.64 µg/mL | EC5 (Aspergillus flavus [17]): 0.87 µg/mL | Ratio (Aspergillus flavus [18]): 0.43 | Activity (Aspergillus fumigatus [19]): 26% | Activity (Aspergillus fumigatus [20]): 26% | Activity (Aspergillus terreus [21]): 34% | Activity (Aspergillus terreus [22]): 35% | Activity (Aspergillus flavus [23]): 17% | Activity (Aspergillus flavus [24]): 21% | Activity (Aspergillus fumigatus [25]): <5% | Activity (Aspergillus fumigatus [26]): <5% | Activity (Aspergillus terreus [27]): <5% | Activity (Aspergillus terreus [28]): <5% | Activity (Aspergillus flavus [29]): <5% | Activity (Aspergillus flavus [30]): <5% | Activity (Aspergillus fumigatus [31]): <5% | Activity (Aspergillus fumigatus [32]): <5% | Activity (Aspergillus terreus [33]): <5% | Activity (Aspergillus terreus [34]): <5% | Activity (Aspergillus flavus [35]): <5% | Activity (Aspergillus flavus [36]): <5% | Activity (Aspergillus fumigatus [37]): Active | Activity (Aspergillus fumigatus [38]): Active | Activity (Aspergillus terreus [39]): Active | Activity (Aspergillus terreus [40]): Active | Activity (Aspergillus flavus [41]): Active | Activity (Aspergillus flavus [42]): Active
